Patent US8747830B2, “Wound repair composition and method” (Queensland University of Technology, priority 2007, dated 2014)

System: MMP's (particularly MMP-9) in chronic wound fluid
Settings: inhibitor 2 mM, 37° C., 24 hours; % of untreated control remaining
Experimental: Collagenase sensitivity was identified as clear bands against a dark background in zymograms and could be quantitated by densitometric analysis. […] Lanes 1-6 are chronic wound fluid samples from six different patients with 500 ng of total protein loaded per sample. […] Electrophoresis was performed at 4° C. under Laemmli conditions. […] After incubation the gels were stained appropriately and protease activity was visualised as clear (unstained) bands.

`C=C(C)C(=O)NCCCC(O)(P(=O)(O)O)P(=O)(O)O` [alendronate-methacrylate conjugate] was tested, and the “type I collagen degradation relative to that seen in the untreated control (densitometry, FIG. 4)” value was 30%-40%.
